Consider two compounds from PMC11449324, “Functional comparison of human and murine equilibrative nucleobase transporter 1” (PLOS ONE, 2024).

Assay [1] deals with T1, hENBT1 (Homo sapiens, UniProt Q8NBI5).
T1 construct: Oligonucleotides corresponding to the coding region of SLC43A3 (NM_001278201) or slc43a3 (NM_021398); expressed in transfected cells; HEK293-hSLC43A3
T1 sequence (Q8NBI5 1-491): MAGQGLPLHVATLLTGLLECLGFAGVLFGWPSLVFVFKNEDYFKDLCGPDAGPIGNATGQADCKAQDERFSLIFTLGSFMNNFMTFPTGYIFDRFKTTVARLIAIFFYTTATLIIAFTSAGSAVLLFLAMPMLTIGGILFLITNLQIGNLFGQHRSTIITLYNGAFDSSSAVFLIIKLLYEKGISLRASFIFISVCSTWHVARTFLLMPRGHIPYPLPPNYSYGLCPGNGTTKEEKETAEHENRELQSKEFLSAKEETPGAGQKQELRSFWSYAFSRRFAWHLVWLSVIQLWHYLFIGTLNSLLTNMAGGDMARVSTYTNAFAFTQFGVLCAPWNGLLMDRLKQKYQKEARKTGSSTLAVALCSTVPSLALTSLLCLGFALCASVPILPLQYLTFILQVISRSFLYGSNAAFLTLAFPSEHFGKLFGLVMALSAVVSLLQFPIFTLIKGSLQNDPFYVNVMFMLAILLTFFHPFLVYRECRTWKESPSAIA
Put plainly: Inhibition of ENBT1-mediated substrate uptake in HEK293-hSLC43A3 cells. It is filed as cell-based. The method, then:
Harvested cells were suspended in nominally sodium-free N-methyl-D-glucamine (NMG) buffer (140 mM NMG, 5 mM KCl, 4.2 mM KHCO3, 0.36 mM K2HPO4, 0.44 mM KH2PO4, 0.5 mM MgCl2, 1.3 mM CaCl2, 10 mM HEPES, pH 7.4), to minimize potential contribution of sodium-dependent concentrative nucleoside transporter-mediated uptake. Additionally, cells were incubated for 15 minutes at room temperature with 10 μM dipyridamole (DY), an equilibrative nucleoside transporter (ENT) inhibitor, to block equilibrative nucleoside transporter–mediated uptake. The substrate uptake assay was initiated by adding 250 μL cell suspension to 250 μL [^3H] labeled substrate, layered over 21:4 silicone:mineral oil (200 μL) in 1.5 mL microcentrifuge tubes (conducted at room temperature). The uptake reaction was terminated after 2 seconds by centrifugation of the cells through the oil layer at ~10,000 g. This is the minimum incubation time achievable with this oil-stop technique, and it was found in previous studies that these short incubation times were necessary to assess the kinetics of this transporter. The aqueous layer was removed via vacuum-powered aspirator, and the tube was washed with 1 mL of NMG buffer prior to removal of the oil layer. The resulting cell pellet was digested in 250 μL 1 M NaOH overnight (~16 hours), with 220 μL aliquots of digested cells assessed for radioactive content using standard liquid scintillation counting techniques in a Beckman Coulter LS6500 scintillation system (Brea, CA).
To assess the ability of compounds to inhibit substrate uptake, cells were incubated with the inhibitor for 15 minutes prior to initiating the uptake assay, or exposed to the cells simultaneously with the radiolabelled substrate. […] After subtraction of the non-mediated uptake component, the degree of inhibition was calculated as the ratio of cellular accumulation in the presence of test compound to that measured in its absence (X 100).
Each assay was repeated 5–6 times using independent cell isolations and reagent preparations. In addition, within each assay, there were two or three technical replicates (using the same reagents and cells) that were averaged to obtain a single data point. Nonlinear curves were fitted to data (presented as mean ± SD from the 5–6 independent experiments), and statistical analyses were done using GraphPad Prism 10 software. In all cases, if the P-value determined from a statistical test was less than 0.05, the null hypothesis was rejected and the alternative hypothesis was favoured. Significant differences between groups were assessed using either Student’s t-test or ordinary one- or two-way analysis of variance (ANOVA) followed by a post hoc Šidák multiple comparison test, as appropriate. For influx and cell viability analyses, significant differences in Km and EC50 value, respectively, between the hENBT1 and mENBT1 data sets, were determined by the extra sum-of-squares F test. For inhibition analyses, the Ki values were determined from the IC50 values using the specified substrate concentration [S], based on the Cheng-Prusoff equation Ki = IC50/(1 + [S]/Km) and experimentally obtained Km values.

For assay [2], the system named is L1210 cells. Put plainly: MTT cell viability assay, L1210. It is filed as cell-based, murine. As to conditions: Mus musculus, L1210, 48 h, single-phase curve. How it is done:
Transfected-HEK293, MOLT-4, and L1210 cells were seeded into 24-well plates at a density of 1.1x10^5 cells per well in complete culture medium. […] Medium containing no cells was used to determine spontaneous MTT reduction (background). In transfected-HEK293 cells, media was removed via a vacuum-powered aspirator and replaced with 150 μL of Dulbecco’s phosphate buffered saline (DPBS—137 mM NaCl, 2.7 mM KCl, 6.3 mM Na2HPO4, 1.5 mM KH2PO4, 0.5 mM MgCl2, 0.9 mM CaCl2, pH 7.4) containing MTT (1 mg/mL) for 90 minutes at 37°C. In MOLT-4 and L1210, cell suspension was transferred to 1.5 mL microcentrifuge tubes and centrifuged for 10 minutes at 3000 rcf. Following centrifugation, media was removed via gentle pipetting and replaced with 150 μL of DPBS containing MTT (1 mg/mL) for 90 minutes at 37°C. Microcentrifuge tubes were centrifuged again for 15 minutes at 23,500 rcf, and then DPBS containing MTT was removed via a vacuum-powered aspirator. The resultant formazan crystals were solubilized in 500 μL of DMSO and transferred to a 96-well plate in 200 μL duplicates. Absorbance was measured at 570 nm, in a SpectraMax® i3x Multi-Mode Detection Platform (Molecular Devices, San Jose, CA). After background subtraction, % cell viability was calculated as the ratio of absorbance in the presence of test compound to that measured with vehicle alone (X 100).
On the technique in general: Tetrazolium assays rely on reduction of a dye to a coloured formazan, in cell work by metabolically active cells.

Read-outs that look alike come from different tables or passages of the source.

Take `Sc1ncnc2nc[nH]c12` [6-MP, 6-Mercaptopurine]: the Ki (as a rule, a measure of affinity in units of concentration, obtained from inhibition or displacement) in assay [1] (HEK293-hSLC43A3, 30 μM [3H]adenine, 2 seconds, Cheng-Prusoff, read-out: Ki for inhibition of ENBT1-mediated [3H]adenine uptake) is 5900 ± 700 µM. Further, the “inhibition of ENBT1-mediated [3H]adenine uptake” value in assay [1] (at highest concentration of 6-MP tested (1 mM), HEK293-hSLC43A3) is “complete inhibition was not obtained”. Besides, the “Ki relative to its Km for the transporter” value in assay [1] (hENBT1) was found to be 30 fold. Besides, the EC50 – broadly, the concentration at which the effect is half-maximal – in assay [2] was 0.6 ± 0.2 µM.

`Nc1ncnc2[nH]cnc12` [adenine, Adenine] yielded an inhibition constant (Ki) in assay [1] of 25 ± 9 µM. In addition, the “inhibition of ENBT1-mediated [14C]6-MP uptake” value in assay [1] (at 1 mM adenine, HEK293-hSLC43A3) is reported as “near complete inhibition”.
